The values that follow are results of earlier work, collected in US20250387524A1, “METHOD AND SYSTEM FOR THE PRODUCTION OF DISINFECTION AND/OR STERILISATION SOLUTIONS” (UNIVERSITAT JAUME I, priority 2022, published 2025).

For the data set the following is noted: EU-US approved.

Regarding `O=CCCCC=O` [Glutaraldehyde], the Minimum biocidal concentration is listed as at least 2%. For `O=Cc1ccccc1C=O` [Orto-phtalaldehyde], the Minimum biocidal concentration is 0.55%.
